Earlier results, collected in patent US20260240991A1, “METHODS OF HEMATOPOIETIC PRECURSOR CELLS MOBILIZATION” (BioLineRx Ltd., priority 2023, published 2026).
Where two headings read alike, the source gives them in different places. Bridges are numbered along the chain shown (N, C = ends). [ ]: non-standard residue; d: D form. The star is where a group is joined. 2Nal = N[C@@H](Cc1ccc2ccccc2c1)C(=O)O; Benzoyl(4-F) = O=C(c1ccc(F)cc1)*; Cit = NC(=O)NCCC[C@H](N)C(=O)O

How the values were obtained:
[1] = system: PB progenitor cells; conditions: mice
[2] = system: PB CD34+ cells
[3] = system: circulating CD34+ cells
[4] = system: CD34+ cells; conditions: patients with MS

| Substance | increase in PB progenitor cells ([1]; agent alone) [fold] | time of peak of PB progenitor cell increase following administration of the dose ([1]; agent alone) [h] | PB progenitor cell increase compared with Plerixafor and G-CSF ([1]; combined with G-CSF) | increase in PB progenitor cells over controls ([1]; combined with G-CSF) [fold] | tolerability ([2]; human, in vivo) | number of apheresis sessions required ([2]; myeloma patients, 900 μg/kg) | effect on mean absolute PB CD34+ cells ([2]; myeloma patients, dose escalation) | mean PB CD34+ count ([2]; myeloma patients, highest dose tested 900 μg/kg) [kg⁻¹] | number of apheresis sessions required ([2]; myeloma patients, lower doses) | maximal concentration of circulating CD34+ cells ([3]; MS patients, 72 hours following administration) [CD34+ cells/μL] | persistence of elevation in PB CD34+ cells following administration ([3]; Zohren and Bonig) | increase in PB CD34+ cells [4] [fold] | time of maximum absolute CD34+ count following treatment [4] [days] | increase in BM CD34+ cells ([4]; dose-dependent) [fold] |
| --- | --- | --- | --- | --- | --- | --- | --- | --- | --- | --- | --- | --- | --- | --- |
| 4F-benzoyl-Arg-Arg-Nal-Cys-Tyr-Cit-Lys-DLys-Pro-Tyr-Arg-Cit-Cys-Arg-NH2 ({Benzoyl(4-F)}-RR[2Nal]CY[Cit]K[dK]PYR[Cit]CR-NH2; disulfide 4-13 (inferred)) [Motixafortide] | ≤ 10 | 1 to 2 | higher than seen with a combination of Plerixafor and G-CSF | 78 | well-tolerated | 1 | dose-dependent increase | 2.06e+07 | 2.25 |  |  |  |  |  |
| Natalizumab: recombinant humanized monoclonal antibody against d4 subunit of VLA-4 |  |  |  |  |  |  |  |  |  | 10.4 | at least 1 month | 7 | 4 | 7 |
